A short description of data set [1]: MTT Cell Proliferation Assay (CellTiter 96 AQueous One Solution, MTS). The format is cell-based. The following applies: human; 72 h treatment; cell line not given; read-out: Cytotoxicity [IC50]. The source says: The CellTiter 96® AQueous One Solution cell proliferation assay (Promega) was used on MM1.S, Jurkat and HCT-116 cells to study the cytotoxic and cytostatic properties of the compounds. The assay is based on the cleavage of the tetrazolium salt, MTS, in the presence of an electron-coupling reagent PES (phenazine ethosulfate). The MTS tetrazolium compound is bioreduced by cells into a colored formazan product that is soluble in tissue culture medium. This conversion is presumably accomplished by NADPH or NADH produced by dehydrogenase enzymes in metabolically active cells. Assays are performed by adding a small amount of the CellTiter 96® AQueous One solution reagent directly to culture wells, incubating for 1-4 hours and then recording the absorbance at 490 nm with a 96-well plate reader. […] The cells were seeded at 5×10^3 to 1.5×10^4 cells (depending on cell type) in each well of 96-well plate in 100 μL of fresh culture medium and adherent cells were allowed to attach for overnight. The stock solutions of the compounds were diluted in cell culture medium to obtain eight concentrations of each drug, ranging from 1 nM to 30 μM and DMSO at less than 1% v/v was used as a negative control. After 72 h of treatment 20 μl of CellTiter 96® AQueous reagent was added into each well of the 96-well assay plates and the plate was incubate at 37° C. for 1-4 hours in a humidified, 5% CO2 atmosphere. Then the absorbance of each well was recorded at 490 nm by using a 96-well plate reader. In most cases the assay was performed in triplicates and the results were presented as half maximal inhibitory concentration (IC50) described below. Optical density versus compound concentration was plotted and analyzed using non linear regression equations (Excel Fit) and the IC50 for each compound was calculated.

A short description of data set [2]: Pharmacokinetics (plasma AUC) in mice. The format is in vivo. Conditions: mouse. As for the experimental part: Blood was collected from mice (N=3) to contribute to the total of 10 time points (pre-dose, 5 min, 15 min, 30 min, 1 hour, 2 hours, 4 hours, 8 hours, 12 hours and 24 hours post dose). Mice were bled on a rotating basis, each mouse contributing 3 time points to the blood collection. At the designated time points, animals were anaesthetized under isoflurane, and approximately 110 μL of blood per time point was collected via retro-orbital puncture into pre-cooled K2EDTA (anti-coagulant) tubes. Blood samples were put on wet ice and centrifuged (2000 g, 5 min at 4° C.) to obtain plasma within 30 minutes of sample collection. All samples were stored frozen at approximately −80° C. until analysis. Prior to analysis, samples were mixed with internal standard (dexamethasone) in acetonitrile, vortexed, centrifuged, and supernatant was injected for analysis. Concentration of compounds in plasma was determined using LC-MS-MS instrumentation (API 4000, Triple Quadruple with electrospray ionization; Acuity Ultra Performance Liquid Chromatography column C18, with MeOH and formic acid as organic solvents). PK parameters including but not limited to Tmax, Cmax, t1/2, AUClast, AUCinf were calculated using WinNonlin Professional 6.2 software package, non-compartmental pharmacokinetic model NCA200.

Data set [3] is described as follows: Brain to plasma ratio (B:P) in mice. The following applies: for Kp at 2 h: mouse, brain and plasma, 10 mg/kg po, 2 hours post-dose. It counts as in vivo. On the procedure:
Brain tissue following collection was rinsed with cold saline, dried on filter paper, weighed and snap-frozen by placing on dry ice. All samples were stored frozen at approximately −80° C. until analysis. […] Plasma samples were treated with the identical method (except homogenization step) and concentration of compound in either matrix was calculated based on the generated standard curves.

The target of data set [4] is T1, CRM1 (Homo sapiens, UniProt O14980).
T1 construct: endogenous in cells; host or cells: U2OS-RevGFP cells
In words: RevGFP assay: inhibition of CRM1 mediated nuclear export. Conditions: U2OS-RevGFP cells, ~1 hr with compound; read-out: Rev Export [IC50]. It counts as cell-based. As for the experimental part:
The inhibition of CRM1 mediated nuclear export by compounds of the invention was determined. The inhibitory activity of compounds for the CRM1 protein was determined in the RevGFP assay.
Experimental protocol: Rev is a protein from human immunodeficiency virus type 1 (HIV-1) and contains a nuclear export signal (NES) in its C-terminal domain and a nuclear localization signal (NLS) in its N-terminal domain. Nuclear export of Rev protein is dependent on the classical NES/CRM1 pathway (Neville et al, 1997, Kau et al, 2003). Nuclear accumulation of Rev is observed in cells treated with specific inhibitors of CRM1, such as LMB (Kau et al, 2003). In this assay, U2OS-RevGFP cells are seeded onto clear-bottom, black, 384-well plates the day before the experiment. Compounds are serially diluted 1:2 starting from 40 μM in a separate 384-well plate in DMEM, and then transferred onto cells. Cells are incubated with compound for ˜1 hr before fixation with 3.7% formaldehyde and nuclei staining with Hoechst 33258. The amount of GFP in cell nuclei was measured and compound IC50s were determined (Kau et al, 2003).

Consider 14 molecules from patent US9096543B2, “Nuclear transport modulators and uses thereof” (Karyopharm Therapeutics Inc., priority 2012, dated 2015).

T1 sequence (O14980 whole entry): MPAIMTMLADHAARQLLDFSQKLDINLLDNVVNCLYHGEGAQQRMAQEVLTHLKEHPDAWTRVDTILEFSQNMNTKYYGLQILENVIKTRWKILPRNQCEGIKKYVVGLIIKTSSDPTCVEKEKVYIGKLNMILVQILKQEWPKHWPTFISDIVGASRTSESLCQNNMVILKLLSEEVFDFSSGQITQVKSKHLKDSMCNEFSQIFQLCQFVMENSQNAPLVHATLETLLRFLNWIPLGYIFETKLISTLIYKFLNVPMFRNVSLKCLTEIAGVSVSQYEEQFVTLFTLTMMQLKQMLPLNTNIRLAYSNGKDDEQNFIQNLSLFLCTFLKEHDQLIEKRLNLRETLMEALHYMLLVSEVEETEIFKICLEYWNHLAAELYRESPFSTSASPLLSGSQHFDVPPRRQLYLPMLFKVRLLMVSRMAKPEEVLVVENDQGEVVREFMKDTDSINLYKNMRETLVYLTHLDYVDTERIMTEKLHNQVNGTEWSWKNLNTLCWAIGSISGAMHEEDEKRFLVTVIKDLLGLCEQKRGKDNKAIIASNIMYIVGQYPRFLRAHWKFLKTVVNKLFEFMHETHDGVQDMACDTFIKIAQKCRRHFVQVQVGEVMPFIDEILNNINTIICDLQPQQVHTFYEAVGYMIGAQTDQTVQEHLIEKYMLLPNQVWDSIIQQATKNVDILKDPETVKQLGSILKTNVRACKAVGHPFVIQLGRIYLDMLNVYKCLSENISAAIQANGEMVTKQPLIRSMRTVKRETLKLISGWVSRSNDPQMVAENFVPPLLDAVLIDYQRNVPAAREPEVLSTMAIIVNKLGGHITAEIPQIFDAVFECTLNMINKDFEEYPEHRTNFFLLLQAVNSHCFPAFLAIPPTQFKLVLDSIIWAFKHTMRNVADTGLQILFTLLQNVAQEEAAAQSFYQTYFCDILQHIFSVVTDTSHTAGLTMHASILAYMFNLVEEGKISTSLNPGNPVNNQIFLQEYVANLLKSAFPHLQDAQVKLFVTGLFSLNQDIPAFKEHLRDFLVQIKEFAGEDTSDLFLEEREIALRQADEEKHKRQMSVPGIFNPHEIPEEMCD

Take `CN1CCC(C(=O)NNC(=O)/C=C\n2cnc(-c3cc(C(F)(F)F)cc(C(F)(F)F)c3)n2)CC1` [Compound 9, (Z)—N′-(3-(3-(3,5-bis(trifluoromethyl)phenyl)-1H-1,2,4-triazol-1-yl)acryloyl)-1-methylpiperidine-4-carbohydrazide]: the half-inhibitory concentration (IC50) at 72 h in data set [1] is under 1 µM. In addition, the AUC(0-inf) in data set [2] (5 mg/kg po) came out at 671 ng·h/mL.

On to `CC1COCC(C)N1CC(=O)NNC(=O)/C=C\n1cnc(-c2cc(C(F)(F)F)cc(C(F)(F)F)c2)n1` (stereo not drawn) [Compound 13, (Z)-3-(3-(3,5-bis(trifluoromethyl)phenyl)-1H-1,2,4-triazol-1-yl)-N′-(2-(3,5-dimethylmorpholino)acetyl)acrylohydrazide], for which the IC50 at 72 h in data set [1] was under 1 µM. This molecule also gave a total exposure AUC(0-inf) in data set [2] (10 mg/kg po) of 1100 ng·h/mL. In data set [3], the Kp at 2 h was 1.5.

In the case of `COc1cc(-c2ncn(/C=C\C(=O)OC(C)C)n2)cc(C(F)(F)F)c1` [Compound X-1, reference compound], the IC50 in data set [4] is under 1 µM. The half-maximal inhibitory concentration (IC50) at 72 h in data set [1] was under 1 µM. The molecule also returned an AUC(0-inf) in data set [2] (5 mg/kg iv) of 209 ng·h/mL. The “levels in the brain” value in data set [3] (dosed po) was “below the quantitation limit”.

Turning to `O=C(/C=C\n1cnc(-c2cc(C(F)(F)F)cc(C(F)(F)F)c2)n1)NNC(=O)c1cnccn1` [Compound 8, (Z)—N′-(3-(3-(3,5-bis(trifluoromethyl)phenyl)-1H-1,2,4-triazol-1-yl)acryloyl)pyrazine-2-carbohydrazide], the IC50 at 72 h in data set [1] was under 1 µM. In data set [2] (10 mg/kg po), this molecule yielded a total exposure AUC(0-inf) of 9150 ng·h/mL. Besides, the partition ratio (Kp) at 2 h in data set [3] stood at 0.41.

As to `O=C(/C=C\n1cnc(-c2cc(C(F)(F)F)cc(C(F)(F)F)c2)n1)NNC(=O)CN1CCOCC1=O` [Compound 14, (Z)-3-(3-(3,5-bis(trifluoromethyl)phenyl)-1H-1,2,4-triazol-1-yl)-N′-(2-(3-oxomorpholino)acetyl)acrylohydrazide], the half-inhibitory concentration (IC50) at 72 h in data set [1] is under 1 µM. In data set [2] (10 mg/kg po), this molecule gave an area under the curve AUC(0-inf) of 1420 ng·h/mL. The Kp at 2 h in data set [3] was 0.

Take `Cc1[nH]ncc1C(=O)NNC(=O)/C=C\n1cnc(-c2cc(C(F)(F)F)cc(C(F)(F)F)c2)n1` [Compound 3, (Z)—N′-(3-(3-(3,5-bis(trifluoromethyl)phenyl)-1H-1,2,4-triazol-1-yl)acryloyl)-5-methyl-1H-pyrazole-4-carbohydrazide]: the IC50 in data set [4] was under 1 µM. Also, the 50% inhibitory concentration (IC50) at 72 h in data set [1] was under 1 µM. Besides, the area under the curve AUC(0-inf) in data set [2] (10 mg/kg po) was 15200 ng·h/mL. For the same molecule, the concentration ratio (Kp) at 2 h in data set [3] stood at 0.03.

Regarding `CC(C)[C@H](N)C(=O)NNC(=O)/C=C\n1cnc(-c2cc(C(F)(F)F)cc(C(F)(F)F)c2)n1` [Compound 7, (S,Z)-2-amino-N′-(3-(3-(3,5-bis(trifluoromethyl)phenyl)-1H-1,2,4-triazol-1-yl)acryloyl)-3-methylbutanehydrazide 2,2,2-trifluoroacetate], the half-maximal inhibitory concentration (IC50) at 72 h in data set [1] was under 1 µM.

As to `CC(C)[C@@H](N)C(=O)NNC(=O)/C=C\n1cnc(-c2cc(C(F)(F)F)cc(C(F)(F)F)c2)n1` [Compound 10, (R,Z)-2-amino-N′-(3-(3-(3,5-bis(trifluoromethyl)phenyl)-1H-1,2,4-triazol-1-yl)acryloyl)-3-methylbutanehydrazide 2,2,2-trifluoroacetate], the IC50 at 72 h in data set [1] is under 1 µM.

`O=C(/C=C\n1cnc(-c2cc(C(F)(F)F)cc(C(F)(F)F)c2)n1)NNC(=S)NC1CC1` [Compound 4, (Z)-2-(3-(3-(3,5-bis(trifluoromethyl)phenyl)-1H-1,2,4-triazol-1-yl)acryloyl)-N-cyclopropylhydrazinecarbothioamide]: the IC50 at 72 h in data set [1] was under 1 µM. This molecule also gave an area under the curve AUC(0-inf) in data set [2] (10 mg/kg po) of 20900 ng·h/mL. Moreover, the Kp at 2 h in data set [3] turned out to be 0.028.

As to `O=C(/C=C\n1cnc(-c2cc(C(F)(F)F)cc(C(F)(F)F)c2)n1)NNC(=O)C(=O)N1CCOCC1` [Compound 12, (Z)-3-(3-(3,5-bis(trifluoromethyl)phenyl)-1H-1,2,4-triazol-1-yl)-N′-(2-morpholino-2-oxoacetyl)acrylohydrazide], in data set [4], the half-inhibitory concentration (IC50) is under 1 µM. The concentration for half-maximal inhibition (IC50) at 72 h in data set [1] is under 1 µM. In data set [2] (10 mg/kg po), this molecule gave an AUC(0-inf) of 19600 ng·h/mL. Further, the Kp at 2 h in data set [3] came out at 0.06.

Regarding `O=C(/C=C\n1cnc(-c2cc(C(F)(F)F)cc(C(F)(F)F)c2)n1)NNC(=O)Cc1cnccn1` [Compound 11, (Z)-3-(3-(3,5-bis(trifluoromethyl)phenyl)-1H-1,2,4-triazol-1-yl)-N′-(2-(pyrazin-2-yl)acetyl)acrylohydrazide], the IC50 at 72 h in data set [1] was under 1 µM. Besides, in data set [2] (10 mg/kg po), the AUC(0-inf) came to 8340 ng·h/mL. Moreover, the partition ratio (Kp) at 2 h in data set [3] came out at 0.095.

Regarding `CN(NC(=O)/C=C\n1cnc(-c2cc(C(F)(F)F)cc(C(F)(F)F)c2)n1)C(=O)CN1CCOCC1` [Compound 5, (Z)-3-(3-(3,5-bis(trifluoromethyl)phenyl)-1H-1,2,4-triazol-1-yl)-N′-methyl-N′-(2-morpholinoacetyl)acrylohydrazide], the IC50 at 72 h in data set [1] is under 1 µM.

On to `CC1(C)COCCN1CC(=O)NNC(=O)/C=C\n1cnc(-c2cc(C(F)(F)F)cc(C(F)(F)F)c2)n1` [Compound 15, (Z)-3-(3-(3,5-bis(trifluoromethyl)phenyl)-1H-1,2,4-triazol-1-yl)-N′-(2-(3,3-dimethylmorpholino)acetyl)acrylohydrazide], for which the IC50 at 72 h in data set [1] was under 1 µM. In data set [2] (10 mg/kg po), this molecule displayed an AUC(0-inf) of 588 ng·h/mL. Moreover, the Kp at 2 h in data set [3] is 0.

As for `O=C(/C=C\n1cnc(-c2cc(C(F)(F)F)cc(C(F)(F)F)c2)n1)NNC(=O)C1CCCNC1` (stereo not drawn) [Compound 6, (Z)—N′-(3-(3-(3,5-bis(trifluoromethyl)phenyl)-1H-1,2,4-triazol-1-yl)acryloyl)piperidine-3-carbohydrazide], the half-inhibitory concentration (IC50) at 72 h in data set [1] is under 1 µM.

The IC50 is the concentration that inhibits the measured activity by half. One may read the AUC(0-inf) as the area under the concentration-time curve extrapolated to infinity. Lower therefore signals less exposure. Usually Kp stands for the ratio of the level in a tissue or fluid to that in plasma or blood.
